Read-outs that look alike come from different tables or passages of the source. Marks after values point to notes of the source that are not given here.
Key:
VHL [1] = molecular target: T1, VHL (Homo sapiens, UniProt P40337); assay: SPR binary binding of PROTAC to immobilized VHL; conditions: binary (PROTAC alone), 285.15 K
T1 construct: VHL (54-213); His6 with TEV cleavage site (N, cleaved yes); made in house; host or cells: E. coli BL21(DE3)

VHL + Brd2^BD1 [2] = molecular target: T2, VHL + Brd2^BD1 (Homo sapiens, UniProt P25440+P40337); assay: SPR ternary binding of PROTAC:Brd2^BD1 complex to immobilized VHL
T2 construct: VHL (54-213); Brd2BD1 (71-194); His6 with TEV cleavage site (N, cleaved yes); made in house; host or cells: E. coli BL21(DE3) (VCB)

VHL + Brd3^BD1 [3] = molecular target: T3, VHL + Brd3^BD1 (Homo sapiens, UniProt P40337+Q15059); assay: SPR ternary binding of PROTAC:Brd3^BD1 complex to immobilized VHL
T3 construct: VHL (54-213); Brd3BD1 (24-144); His6 with TEV cleavage site (N, cleaved yes); made in house; host or cells: E. coli BL21(DE3) (VCB)

VHL + Brd4^BD1 [4] = molecular target: T4, VHL + Brd4^BD1 (Homo sapiens, UniProt O60885+P40337); assay: SPR ternary binding of PROTAC:Brd4^BD1 complex to immobilized VHL
T4 construct: VHL (54-213); Brd4BD1 (44-168); His6 with TEV cleavage site (N, cleaved yes); made in house; host or cells: E. coli BL21(DE3) (VCB)

VHL + Brd2^BD2 [5] = molecular target: T5, VHL + Brd2^BD2 (Homo sapiens, UniProt P25440+P40337); assay: SPR ternary binding of PROTAC:Brd2^BD2 complex to immobilized VHL
T5 construct: VHL (54-213); Brd2BD2 (344-455); His6 with TEV cleavage site (N, cleaved yes); made in house; host or cells: E. coli BL21(DE3) (VCB)

VHL + Brd3^BD2 [6] = molecular target: T6, VHL + Brd3^BD2 (Homo sapiens, UniProt P40337+Q15059); assay: SPR ternary binding of PROTAC:Brd3^BD2 complex to immobilized VHL
T6 construct: VHL (54-213); Brd3BD2 (306-416); His6 with TEV cleavage site (N, cleaved yes); made in house; host or cells: E. coli BL21(DE3) (VCB)

VHL + Brd4^BD2 [7] = molecular target: T7, VHL + Brd4^BD2 (Homo sapiens, UniProt O60885+P40337); assay: SPR ternary binding of PROTAC:Brd4^BD2 complex to immobilized VHL; conditions: for α (cooperativity, KD^binary/KD^ternary) / ΔΔG (ΔG^ternary – ΔG^binary): SPR; for Kd / koff / kon / t1/2 (dissociative half-life, ln2/koff): ternary (+ Brd4^BD2), 298.15 K; for dissociation kinetics faster than the VHL/MZ1/Brd4^BD2 complex: ternary complex with Brd4^BD2
T7 construct: VHL (54-213); Brd4BD2 (333-460); His6 with TEV cleavage site (N, cleaved yes); made in house; host or cells: E. coli BL21(DE3) (VCB)

VHL + Brd2BD2G382E = molecular target: T8, VHL + Brd2BD2G382E (Homo sapiens, UniProt P25440+P40337, G382E); assay: SPR ternary binding of PROTAC:Brd2^BD2 G382E point mutant complex to immobilized VHL
T8 construct: VHL (54-213); Brd2BD2 (344-455); His6 with TEV cleavage site (N, cleaved yes); made in house; host or cells: E. coli BL21(DE3) (VCB)

VHL + Brd3BD2E344G = molecular target: T9, VHL + Brd3BD2E344G (Homo sapiens, UniProt P40337+Q15059, E344G); assay: SPR ternary binding of PROTAC:Brd3^BD2 E344G point mutant complex to immobilized VHL
T9 construct: VHL (54-213); Brd3BD2 (306-416); His6 with TEV cleavage site (N, cleaved yes); made in house; host or cells: E. coli BL21(DE3) (VCB)

VHL + Brd4BD2G386E = molecular target: T10, VHL + Brd4BD2G386E (Homo sapiens, UniProt O60885+P40337, G386E); assay: SPR ternary binding of PROTAC:Brd4^BD2 G386E point mutant complex to immobilized VHL
T10 construct: VHL (54-213); Brd4BD2 (333-460); His6 with TEV cleavage site (N, cleaved yes); made in house; host or cells: E. coli BL21(DE3) (VCB)

VHL [8] = conditions: binary, ITC at 298.15 K, cited from earlier work
VHL + Brd4^BD2 [9] = conditions: cited from earlier work; for Kd: ternary + Brd4^BD2, ITC at 298.15 K; for ΔΔG (ITC) / α (ITC): ternary + Brd4^BD2, ITC
Brd4^BD2 = Brd4^BD2 (Homo sapiens, UniProt O60885); assay: Reversed-format SPR, PROTAC binary binding to immobilized Brd4^BD2; conditions: qualitative, Figures S4 and S6
VHL + Brd2^BD1 [10] = tested on: VHL + Brd2^BD1; parameters: method as in PMID 28288108; conditions: ternary + Brd2^BD1, ITC, ref [2]; cited from earlier work
VHL + Brd3^BD1 [11] = tested on: VHL + Brd3^BD1; parameters: method as in PMID 28288108; conditions: ternary + Brd3^BD1, ITC, ref [2]; cited from earlier work
VHL + Brd4^BD1 [12] = tested on: VHL + Brd4^BD1; parameters: method as in PMID 28288108; conditions: ternary + Brd4^BD1, ITC, ref [2]; cited from earlier work
VHL + Brd2^BD2 [13] = tested on: VHL + Brd2^BD2; parameters: method as in PMID 28288108; conditions: ternary + Brd2^BD2, ITC, ref [2]; cited from earlier work
VHL + Brd3^BD2 [14] = tested on: VHL + Brd3^BD2; parameters: method as in PMID 28288108; conditions: ternary + Brd3^BD2, ITC, ref [2]; cited from earlier work
[15] = ternary + Brd4^BD2, kinetic fit
[16] = steady-state affinity fit (SSA)
[17] = ternary + Brd4^BD2, steady-state affinity fit (SSA)

Row | Structure (SMILES) | Kd (VHL [1]; multicycle, kinetic fit) [nM] | α (cooperativity, KD^binary/KD^ternary) (VHL + Brd4^BD2 [7]; [15]) | Kd (VHL + Brd4^BD2 [7]; single-cycle, kinetic fit) [nM] | binary target affinity (for Brd4) (Brd4^BD2) | Kd (VHL [1]; [16]) [nM] | ΔΔG (ΔG^ternary – ΔG^binary) (VHL + Brd4^BD2 [7]; [15]) | ΔΔG (ΔG^ternary – ΔG^binary) (VHL + Brd4^BD2 [7]; [17]) | α (cooperativity, KD^binary/KD^ternary) (VHL + Brd4^BD2 [7]; [17]) | koff (VHL + Brd4^BD2 [7]; single-cycle, kinetic fit) [s⁻¹] | kon (VHL + Brd4^BD2 [7]; single-cycle, kinetic fit) [M^–1 s^–1 × 10^5] | t1/2 (dissociative half-life, ln2/koff) (VHL + Brd4^BD2 [7]; single-cycle, kinetic fit) [s] | Kd (VHL + Brd4^BD2 [7]; [16]) [nM] | dissociation kinetics faster than the VHL/MZ1/Brd4^BD2 complex (VHL + Brd4^BD2 [7]) [fold] | Kd (VHL [8]; ref [10]) [nM] | Kd (VHL + Brd4^BD2 [9]; ref [10]) [nM] | ΔΔG (ITC) (VHL + Brd4^BD2 [9]; ref [10]) | α (ITC) (VHL + Brd4^BD2 [9]; ref [10]) | further results
1 | CC(=O)N[C@H](C(=O)N1C[C@H](O)C[C@H]1C(=O)NCc1ccc(-c2scnc2C)cc1)C(C)(C)SCCCCCCNC(=O)C[C@@H]1N=C(c2ccc(Cl)cc2)c2c(sc(C)c2C)-n2c(C)nnc21 [AT1] | 110 | 4.7 | 24 | weaker |  |  |  |  |  |  |  |  |  |  |  |  |  | ΔΔG (ΔG^ternary – ΔG^binary) (VHL + Brd2^BD1 [2]): +0.9 kcal/mol; α (cooperativity, KD^binary/KD^ternary) (VHL + Brd2^BD1 [2]): 0.3; ΔΔG (ΔG^ternary – ΔG^binary) (VHL + Brd3^BD1 [3]): +0.2 kcal/mol; α (cooperativity, KD^binary/KD^ternary) (VHL + Brd3^BD1 [3]): 0.8; ΔΔG (ΔG^ternary – ΔG^binary) (VHL + Brd4^BD1 [4]): +1.1 kcal/mol; α (cooperativity, KD^binary/KD^ternary) (VHL + Brd4^BD1 [4]): 0.2; α (cooperativity, KD^binary/KD^ternary) (VHL + Brd2^BD2 [5]; SPR, ternary + Brd2^BD2): 4.1; Kd (VHL + Brd2^BD2 [5]; ternary (+ Brd2^BD2), 298.15 K, single-cycle, kinetic fit): 27 nM; ΔΔG (ΔG^ternary – ΔG^binary) (VHL + Brd3^BD2 [6]): +0.4 kcal/mol; α (cooperativity, KD^binary/KD^ternary) (VHL + Brd3^BD2 [6]): 0.7; ΔΔG (ΔG^ternary – ΔG^binary) (VHL + Brd2BD2G382E): +0.3 kcal/mol; α (cooperativity, KD^binary/KD^ternary) (VHL + Brd2BD2G382E): 0.7; α (cooperativity, KD^binary/KD^ternary) (VHL + Brd3BD2E344G): 3.4; ΔΔG (ΔG^ternary – ΔG^binary) (VHL + Brd4BD2G386E): +0.2 kcal/mol; α (cooperativity, KD^binary/KD^ternary) (VHL + Brd4BD2G386E): 0.8; Kd (VHL [8]; ref [2]): 335 nM; Kd (VHL + Brd4^BD2 [9]; ref [2]): 46 nM
2 | Cc1ncsc1-c1ccc(CNC(=O)[C@@H]2C[C@@H](O)CN2C(=O)[C@@H](NC(=O)COCCOCCOCCNC(=O)C[C@@H]2N=C(c3ccc(Cl)cc3)c3c(sc(C)c3C)-n3c(C)nnc32)C(C)(C)C)cc1 [MZ1] |  |  |  |  |  |  |  |  |  |  |  |  |  |  |  |  |  | ΔΔG (ITC) (VHL + Brd2^BD1 [10]): –0.6 ^d kcal/mol; α (ITC) (VHL + Brd2^BD1 [10]): 2.9 ^d; ΔΔG (ITC) (VHL + Brd3^BD1 [11]): –0.8 ^d kcal/mol; α (ITC) (VHL + Brd3^BD1 [11]): 3.5 ^d; ΔΔG (ITC) (VHL + Brd4^BD1 [12]): –0.5 ^d kcal/mol; α (ITC) (VHL + Brd4^BD1 [12]): 2.3 ^d; ΔΔG (ITC) (VHL + Brd2^BD2 [13]): –0.5 ^d kcal/mol; α (ITC) (VHL + Brd2^BD2 [13]): 2.3 ^d; ΔΔG (ITC) (VHL + Brd3^BD2 [14]): –1.5 ^d kcal/mol; α (ITC) (VHL + Brd3^BD2 [14]): 10.7 ^d
3 | CC(=O)N1c2ccc(-c3ccc(C(=O)NCCOCCOCCOCCOCC(=O)N[C@H](C(=O)N4C[C@H](O)C[C@H]4C(=O)NCc4ccc(-c5scnc5C)cc4)C(C)(C)C)cc3)cc2[C@H](Nc2ccc(Cl)cc2)C[C@@H]1C [MZP55] | 69 | 0.4 | 185 | high | 188 | +0.7 kcal/mol | +0.5 kcal/mol | 0.5 | 0.47 | 27 | 1 | 134 | > 80 | 109 | 183 | +0.3 ^e kcal/mol | 0.6 ^e | koff (VHL [1]; multicycle, kinetic fit): 0.015 s⁻¹; kon (VHL [1]; multicycle, kinetic fit): 2.7 M^–1 s^–1 × 10^5; t1/2 (dissociative half-life, ln2/koff) (VHL [1]; multicycle, kinetic fit): 48 s; ΔΔG (ITC) (VHL + Brd4^BD2 [9]; ref [10], listed as MZP 55): +0.3 kcal/mol; α (ITC) (VHL + Brd4^BD2 [9]; ref [10], listed as MZP 55): 0.6
4 | CC(=O)N1c2ccc(-c3ccc(C(=O)NCCOCCOCC(=O)N[C@H](C(=O)N4C[C@H](O)C[C@H]4C(=O)NCc4ccc(-c5scnc5C)cc4)C(C)(C)C)cc3)cc2[C@H](Nc2ccc(Cl)cc2)C[C@@H]1C [MZP61] |  | 0.2 | 465 | high | 104 | +1.0 kcal/mol | +0.6 kcal/mol | 0.4 | 1 | 30 | 1 | 248 | > 80 | 116 | 781 | +1.1 ^e kcal/mol | 0.1 ^e | ΔΔG (ITC) (VHL + Brd4^BD2 [9]; ref [10], listed as MZP 61): +1.1 kcal/mol

From paper PMC6423499, “SPR-Measured Dissociation Kinetics of PROTAC Ternary Complexes Influence Target Degradation Rate” (ACS Chemical Biology, 2019)
